Source: patent US20260240846A1, “ZAK ALPHA KINASE (MAP3K20) INHIBITORS FOR USE IN THE TREATMENT OF ANEMIA” (UNIVERSIDAD DE MURCIA, priority 2023, published 2026)

Assays:
K562 cells = assay: Erythroid differentiation assay in K562 cells (hemin; hemoglobin accumulation, western blot); format: cell-based, human
Method: FIG. 1. ZAKα/P38 signaling pathway is activated in K562 after erythroid differentiation and its inhibition facilitates terminal erythroid differentiation. K562 cells were pre-treated with 0.1 μM nilotinib (Nil) (A, C, D), 1 μM anisomycin (B) and/or the indicated concentrations of the […] CX-5461 for 24 h, and then differentiated with 50 μM hemin for another 24 h. Hemoglobin accumulation (A, B, D) and NLRP1, phosphorylated P38, GATA1, ZAKα and ACTB (A-C) amounts were then evaluated by western blot. Immunoblots are representative of 3 independent experiments. #1, ACTB; #2, GATA1.
FIG. 2. The ZAKα/P38 signaling pathways is activated in K562 after erythroid differentiation. K562 cells were pre-treated with 0.1 μM nilotinib for 24 h and then differentiated with 50 μM hemin for the indicated times. The amounts of NLRP1, GATA1, phosphorylated P38, total ZAKα, phosphorylated ZAKα (Phos-tag) and ACTB were then evaluated by western blot.
(§1) FIG. 10. Imatinib and dasatinib promote erythropoiesis in human and zebrafish. (A) K562 cells were pretreated with the indicated concentrations of nilotinib, imatinib or dasatinib for 24 h and then differentiated with 50 μM hemin for 24 h. The amounts of NLRP1, GATA1, phosphorylated P38, total ZAKα and ACTB were then evaluated by western blot. (B) Zebrafish larvae were treated from 1 to 2 dpf with the indicated concentrations of nilotinib, imatinib or dasatinib. Representative images and number of neutrophils in larvae of 2 dpf treated by bath immersion with the indicated concentrations of imatinib and dasatinib. Each dot represents one individual and the mean±SEM for each group is also shown. P values were calculated by one-way ANOVA and Tukey's multiple range test. n.s., non-significant. ***P<0.001; ****P<0.0001.
(§2) FIG. 11. Ponatinib and bosutinib promote erythropoiesis in human and zebrafish. (A) K562 cells were pretreated with the indicated concentrations of nilotinib, ponatinib and bosutinib for 24 h and then differentiated with 50 μM hemin for the indicated times. The amounts of NLRP1, total ZAKα, GATA1, phosphorylated P38 and ACTB were then evaluated by western blot. (B) Number of neutrophils in larvae of 2 dpf treated by bath immersion with the indicated concentrations of ponatinib and bosutinib. Each dot represents one individual and the mean±SEM for each group is also shown. P values were calculated by one-way ANOVA and Tukey's multiple range test. n.s., non-significant, *P<0.05. **P<0.01. ***P<0.001.
K562 cells (CRL-3343; American Type Culture Collection) were maintained in RPMI culture medium supplemented with 10% fetal calf serum (FCS), 2 mM Glutamine, and 1% penicillin-streptomycin (Life Technologies). Cells were maintained and subcultured before confluence every 72 h. For differentiation, cells were treated with 50 μM hemin (#16009-13-5, Sigma-Aldrich) in the presence of 0.1% DMSO alone or with the caspase-1 inhibitor VX-765 (100 μM), the tyrosine kinase inhibitor nilotinib (0.1 μM), the RNA polymerase I inhibitor CX-5461 (200 nM, 1 μM and 10 μM) (all from MedChemExpress). Cells were collected at different time points (0, 24, 48 hours post-hemin addition), centrifuged, washed twice with PBS, and stored at −80° C. for further analysis.
Cells were lysed in 50 mM Tris-HCl (pH 7.5), 150 mM NaCl, 1% (w/v) NP-40 and fresh protease inhibitor (1/20, #P8340, Sigma-Aldrich). Protein quantification was performed with the BCA kit using BSA as standard. Cell lysates ([…]) in SDS sample buffer were subjected to electrophoresis on a polyacrylamide gel and transferred to nitrocellulose membranes. The membranes were incubated for 1 h with TTBS containing 5% (w/v) skimmed dried milk powder or 2% (w/v) BSA. The membranes were immunoblotted in the same buffer 16 h at 4° C. with the different primary antibodies diluted 1/1000. The blots were then washed with TTBS and incubated for 1 h at room temperature with secondary HRP-conjugated antibodies diluted 2,500-fold in 5% (w/v) skimmed milk in TTBS. […]

zebrafish larvae = assay: Chemical treatment of zebrafish larvae by bath immersion; counting of neutrophils and erythrocytes; format: in vivo, Zebrafish (Danio rerio H.)
Method: FIG. 3. ZAKα regulates hematopoiesis in zebrafish through the Nlrp1 inflammasome. Number of neutrophils (B, D, H), erythrocytes (F) and macrophages (J), and caspase-1 activity (K) in 2 dpf larvae either treated from 1 to 2 dpf by bath immersion with 1 μM nilotinib and/or 100 μM anisomycin (A-D) or obtained by injecting one-cell stage embryos with standard or zaka crRNAs/Cas9 complexes (E-K). Representative images of neutrophils (A, C, G), erythrocytes (E) and macrophages (I) are also shown. Each dot represents one individual and the mean±SEM for each group is also shown. P values were calculated using one-way ANOVA and Tukey's multiple range test (B) or Student's t-test (D, F, H, J, K). n.s., non-significant; *P<0.05; **P<0.01; ***P<0.001.
FIG. 6. NLRP1 is activated by phosphorylation of the linker domain after activation of ZAKα and pharmacological inhibition of this signaling pathway promotes erythropoiesis in DBA. (A-D) Number of neutrophils (A-C), and caspase-1 activity (D) in 2 dpf larvae obtained by injection of one-cell stage embryos with human NLRP1 (wild type-WT, S107A and S107D) and treated from 1 to 2 dpf by bath immersion with 1 μM nilotinib (B-D). Representative images of neutrophils (arrows) are also shown in C. (E, F) BMMCs from a DBA patient were incubated for 2 weeks in human methylcellulose complete medium at 37° C. in the presence or absence of the indicated concentrations of nilotinib, and colonies were counted using standard morphological criteria. Each dot represents one individual and the mean±SEM for each group is also shown. P values were calculated by one-way ANOVA and Tukey's multiple range test. n.s., non-significant; *P<0.05; **P<0.01; ***P<0.001; ****P<0.0001.
as §1, §2
Zebrafish (Danio rerio H.) were obtained from the Zebrafish International Resource Center and mated, staged, raised and processed as described in The Zebarfish Book. The lines Tg(mpx:eGFP)^t114, Tg(lyz:DsRED2)^n250, Tg(mfap4:mCherry)^ump6, Tg(gata1a:DsRed)^sd2 Tg(runx1:GAL4)^utn6), Tg(UAS-E1B:NTR-mCherry) and casper (mitfa^w2/w2; mpv17^a9/a9) were previously described. spint1a^hi2217Tg/hi2217Tg was isolated from insertional mutagenesis screens. The experiments performed comply with the Guidelines of the European Union Council (Directive 2010/63/EU) and the Spanish RD 53/2013. The experiments and procedures performed were approved by the Bioethical Committees of the University of Murcia (approval number #669/2020). […]

HSPCs from DBA patients = assay: Colony assay of PBMCs from DBA patients in methylcellulose medium; format: cell-based, human; settings: 2 weeks, indicated concentrations (FIG. 13A)
Method: FIG. 13. […] PBMCs from DBA patients were incubated for 2 weeks in human methylcellulose complete medium at 37° C. in the presence or absence of the indicated concentrations of nilotinib, imatinib, dasatinib, bosutinib and ponatinib, and the number of erythroid (A) and myeloid (B) colonies counted using standard morphological criteria. Each dot represents one patient and the means±SEM for each group is also shown.

SMILES: Cc1cnc(CNC(=O)c2c(=O)c3ccc(N4CCCN(C)CC4)nc3n3c2sc2ccccc23)cn1 [CX-5461]
- erythroid differentiation in K562 cells (K562 cells; CX-5461 at indicated concentrations 24 h, then 50 μM hemin 24 h, hemoglobin accumulation (FIG. 1D)): impairs erythroid differentiation

SMILES: COc1ccc(C[C@H]2NC[C@H](O)[C@H]2OC(C)=O)cc1 [anisomycin]
- neutrophil number in Nlrp1- and Zaka-deficient larvae (zebrafish larvae; larvae 2 dpf, anisomycin): failed to increase neutrophil number
- neutrophil number (zebrafish larvae; wild type larvae 2 dpf, bath immersion 1 to 2 dpf, 1 μM nilotinib, 100 μM anisomycin): caused neutrophilia

SMILES: Cc1ccc(NC(=O)c2ccc(CN3CCN(C)CC3)cc2)cc1Nc1nccc(-c2cccnc2)n1 [imatinib]
- GATA1 protein amounts (K562 cells; K562 cells, indicated concentrations of TKI 24 h, then 50 μM hemin, western blot (FIG. 10A, 11A)): enhancing GATA1 amount
- erythroid differentiation of K562 cells (K562 cells; indicated concentrations of TKI 24 h, then 50 μM hemin (FIG. 10A, 11A)): promoted erythroid differentiation of K562 cells by blocking the ZAKα/P38 axis
- number of erythrocytes in zebrafish larvae (zebrafish larvae; bath immersion 1 to 2 dpf, imatinib 1 and 10 μM, dasatinib 0.1 and 1 μM (FIG. 10B)): enhanced the number of erythrocytes
- defective erythropoiesis of HSPCs from DBA patients (erythroid colonies) (HSPCs from DBA patients): alleviated defective erythropoiesis
